Assay results as given in patent US8124834B2, “Use of active cytokinin synthase gene” (Riken, priority 2006, dated 2012).

How the values were obtained:
LOG protein [1] = target: T1, LOG protein (Oryza sativa subsp. japonica, UniProt Q5ZC82); assay: Substrate specificity of LOG protein to nucleotide cytokinin forms and AMP; format: biochemical; parameters: the protein coding region of the LOG gene cDNA was inserted into pCOLD-I (TaKaRa), a His-tag protein expression vector; made in house; host or cells: E. coli BL21(DE3)[pG-Tf2]; conditions: 0.02 μg LOG protein, 100 μM substrate, pH 6.5, 4 minutes (iPRDP, iPRTP: 0.01 μg, 2 minutes)
T1 sequence (Q5ZC82 1-242): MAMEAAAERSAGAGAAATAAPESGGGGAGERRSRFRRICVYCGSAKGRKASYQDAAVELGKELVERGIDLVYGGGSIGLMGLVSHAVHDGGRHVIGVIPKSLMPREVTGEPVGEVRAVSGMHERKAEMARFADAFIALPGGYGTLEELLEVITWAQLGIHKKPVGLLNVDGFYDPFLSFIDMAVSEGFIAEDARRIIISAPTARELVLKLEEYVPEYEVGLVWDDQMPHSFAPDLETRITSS
Protocol: The reaction specificity of the LOG protein to a nucleotide cytokinin form was analyzed. […] The following 7 types of substrates were used: iPRMP, tZRMP, dihydrozeatin riboside 5′-monophosphate (DZRMP), cZR 5′-monophosphate (cZRMP), iPR 5′-diphosphate (iPRDP), iPR 5′-triphosphate (iPRTP), and AMP. The reaction conditions are as follows. 0.02 μg of the LOG protein was used for a single reaction, and it was reacted with a 100 μM substrate in 200 μl of a reaction solution containing 50 mM Tris-HCl, 1 mM MgCl2, 1 mM DTT, pH 6.5. Thereafter, 0 minute and 4 minutes after initiation of the reaction, 600 μl of cold acetone was added to the reaction solution to terminate the reaction. The reaction solution was left at rest at −80° C. for 30 minutes, and it was then centrifuged at 15,000 rpm for 20 minutes. Thereafter, a supernatant was dried using a centrifugal thickener. […] Only the injection amount was changed to 50 μl. In the case of iPRDP and iPRTP, the amount of a reaction solution was determined to be 100 μl, the mass of a protein used was determined to be 0.01 μg, and the reaction time was determined to be 2 minutes.

[2] = system: AtLOG 1, 2, 3, 4, 5, 7 and 8 proteins; assay: Confirmation of LOG enzyme activity of Arabidopsis thaliana LOG homolog proteins (substrate specificity); format: biochemical; conditions: purified AtLOG 1, 2, 3, 4, 5, 7 and 8 proteins, result stated for all together
Protocol: (§1) 3 μg of the recombinant LOG protein obtained in Example 1 was allowed to react with various types of cytokinins used as substrates. The following 8 types of cytokinin substrates were used: N^6-(delta-2-isopentenyl)adenine (iP), trans-zeatin (tZ), cis-zeatin (cZ), iP riboside (iPR), tZ riboside (tZR), cZ riboside (cZR), iPR 5′-monophosphate (iPRMP), and tZR 5′-monophosphate (tZRMP). As reaction conditions, 100 μl of a reaction solution containing 50 mM Tris-HCl, 1 mM MgCl2, and a 50 μM substrate, pH7 was incubated at 30° C. for 2 hours. Thereafter, 10 μl of 20% acetic acid was added to the reaction solution to terminate the reaction, and the reaction solution was then centrifuged at 15,000 rpm at a room temperature for 20 minutes. Thereafter, 20 μl of a supernatant was analyzed by liquid chromatography using HPLC (Waters Alliance 2695/PDA detector 2996). As a column, Symmetry C18, 3.5 μm, 2.1×100 mm cartridge (Waters) was used. For elution, solvent C (100% acetonitrile) and solvent D (2% acetic acid) were used.
The reaction specificity of the LOG protein to a nucleotide cytokinin form was analyzed. At the same time, the presence or absence of the reactivity of the LOG protein to AMP was also analyzed. […] The resultant was dissolved in 100 μl of 2% acetic acid, and the reaction product was then detected and quantified under the same conditions as those for the liquid chromatography of Example 2. […] In the case of iPRDP and iPRTP, the amount of a reaction solution was determined to be 100 μl, the mass of a protein used was determined to be 0.01 μg, and the reaction time was determined to be 2 minutes.
The enzyme activity of each of the purified AtLOG proteins was evaluated under the same reaction conditions as those of Example 2. […] In addition, the enzyme property of each AtLOG protein to iPRMP was determined in the same manner as in Example 5 (Table 4). In Table 4, the Km, Vmax and Kcat values were calculated based on a reaction under the optimal pH condition of each AtLOG protein.

LOG protein [3] = target: T1, LOG protein; assay: Measurement of Km value of LOG protein to iPRMP and tZRMP; format: biochemical; parameters: the protein coding region of the LOG gene cDNA was inserted into pCOLD-I (TaKaRa), a His-tag protein expression vector; made in house; host or cells: E. coli BL21(DE3)[pG-Tf2]; conditions: substrate 5-100 μM, 0.02 μg LOG protein, pH 6.5
Protocol: In order to obtain the Km value of the LOG protein to typical substrates iPRMP and tZRMP, the following experiment was carried out. 0.02 μg of LOG protein was used for a single reaction, and it was reacted with a substrate in a substrate concentration of each of 5, 8, 15, 30 and 100 μM in 200 μl of a reaction solution containing 50 mM Tris-HCl, 1 mM MgCl2, 1 mM DTT, pH 6.5. Thereafter, 0 minute, 2 minutes and 4 minutes after initiation of the reaction, 600 μl of cold acetone was added to the reaction solution to terminate the reaction. The reaction solution was left at rest at −80° C. for 30 minutes, and it was then centrifuged at 15,000 rpm for 20 minutes. Thereafter, a supernatant was dried using a centrifugal thickener. The resultant was dissolved in 100 μl of 2% acetic acid, and a reaction product was then detected and quantified under the same conditions as those for the liquid chromatography of Example 2. Only the injection amount was changed to 50 μl. The aforementioned experiment was carried out three times, and the Km value was calculated.

LOG protein [4] = target: T1, LOG protein; assay: Detection of enzyme activity of recombinant LOG protein with cytokinin substrates (HPLC); format: biochemical; parameters: the protein coding region of the LOG gene cDNA was inserted into pCOLD-I (TaKaRa), a His-tag protein expression vector; made in house; host or cells: E. coli BL21(DE3)[pG-Tf2]; conditions: 3 μg LOG protein, 50 μM substrate, pH7, 30° C., 2 hours, HPLC absorption at 270 nm
Protocol: as §1, with “The” for “3 μg of the recombinant LOG protein obtained in Example 1 was allowed to react with various types of cytokinins used as substrates. The”, “Thereafter, 20 μl of a supernatant was analyzed by liquid chromatography using HPLC (Waters Alliance 2695/PDA detector 2996). As a column, Symmetry C18, 3.5 μm, 2.1×100 mm cartridge (Waters) was used.” left out

LOG protein [5] = target: T1, LOG protein; conditions: 3 μg LOG protein, 5 mM L-lysine, pH 6.0, 40° C., 60 minutes, HPLC absorption at 226 nm
Source text: As a column, Symmetry C18, 3.5 μm, 2.1×100 mm cartridge (Waters) was used.

SMILES | reactivity of LOG protein to the substrate (substrate specificity) (LOG protein [1]) | reactivity of AtLOG proteins to the substrate (substrate specificity) [2] | specific activity of the LOG protein (LOG protein [3]) | reactivity of the substrate with recombinant LOG protein (conversion to base form) (LOG protein [4]) | reactivity of LOG protein to lysine (LOG protein [5])
Nc1ncnc2c1ncn2[C@@H]1O[C@H](COP(=O)(O)O)[C@@H](O)[C@H]1O [AMP] | no reactivity | almost no reactivity | – | – | –
CC(C)=CCNc1ncnc2c1ncn2[C@@H]1O[C@H](COP(=O)(O)OP(=O)(O)O)[C@@H](O)[C@H]1O [iPRDP, iPR 5′-diphosphate] | no reactivity | almost no reactivity | – | – | –
CC(C)=CCNc1ncnc2c1ncn2[C@@H]1O[C@H](COP(=O)(O)O)[C@@H](O)[C@H]1O [iPRMP, isopentenyladenine riboside 5′-monophosphate] | uses as a substrate | – | 5.6 μmol/min^−1/mg^−1 protein | completely converted | –
CC(C)=CCNc1ncnc2c1ncn2[C@@H]1O[C@H](COP(=O)(O)OP(=O)(O)OP(=O)(O)O)[C@@H](O)[C@H]1O [iPRTP, iPR 5′-triphosphate] | no reactivity | almost no reactivity | – | – | –
NCCCC[C@H](N)C(=O)O [lysine, L-lysine] | – | – | – | – | did not exhibit reactivity
